Residues, ends and D or L forms follow the SMILES beside them.
Columns and labels:
[1] = test system: normal human epidermal keratinocytes (NHEKs); experiment: LDH release cytotoxicity assay in keratinocytes; type: cell-based; details: minimal concentration giving 50% LDH release by NHEKs
Summary of the method: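 Normal human epidermal keratinocytes were exposed to LL-34 parent and alanine-substituted peptides. Cytotoxicity was read as LDH release in fresh culture supernatants after treatment, using a commercial kit, and reported as the minimal concentration showing toxicity.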

[2] = test system: NHEKs, IL-6 secretion in response to U1 dsRNA; experiment: IL-6 secretion ELISA in NHEKs; type: cell-based, human; details: U1 dsRNA 2.5 μg/ml + peptide 2 μM, 18 h, n = 3
Description: Protein levels of human IL-6 were analyzed from cell supernatant with ELISA (n = 3). Corresponding MIC values of LL-34 peptides L1A–R34A against Staphylococcus aureus USA300 are shown in the heat map. B, human dermal endothelial cells (HDMECs) were treated with either U1 dsRNA (2.5 μg/ml) or a combination of U1 dsRNA (2.5 μg/ml) and LL-34 peptides (Pep 1–Pep 34 and Pep–parent LL-34) at 2 μM for 18 h. IL-6 ELISA results are shown (n = 3). Green bars denote loss of IL-6 protein secretion compared with parent control shown in red. C, helical wheel plot for LL-34. Amino acids with green circles denote specific residues where replacement with an alanine caused the loss of IL-6 secretion compared with parent LL-34 peptide in NHEKs cotreated with U1 dsRNA. D, in the helical wheel plot for LL-34, circled green amino acids indicate that a substitution caused a loss of vetting in HDMEC. E–H, NHEKs were treated with LL-34-parent peptide (LL-34-P), LL-34-F5A, LL-34-I24A, LL-34-F27A, and LL-34-L31A at 2 μM, either individually or in combination with U1 dsRNA (2.5 μg/ml) for 8 h. Gene expression of IL-6, IFNB1, TSLP, and CXCL10 was assessed with qRT-PCR. GAPDH was used as a reference gene (n = 3) (∗p < 0.05; ∗∗∗∗p < 0.0001). One way-ANOVA was used. IL-6, interleukin 6; LL-34, 34-amino acid peptide; MIC, minimum inhibitory concentration, ns, not significant.
We hypothesized that sequential replacement of each amino acid in LL-34 peptide with a neutral amino acid alanine might reveal the amino acid residues critical for its ability to induce inflammation in response to U1 dsRNA. First, we treated NHEKs and human dermal microvascular endothelial cells (HDMECs) with LL-34 parent peptide and each of the 34 mutants at 2 μM for 18 h and measured the secretion of interleukin 6 (IL-6) in the supernatant by ELISA (Fig. S1, A and B). […] We then treated both NHEKs and HDMECs with a combination of U1 dsRNA (2.5 μg/ml) and the LL-34 parent/mutant peptides at 2 μM for 18 h and measured IL-6 secretion (Fig. 1, A–C). […] A similar pattern of IL-6 release was observed when HDMECs were treated with the peptide library and U1 dsRNA (Fig. 1B).
Cell culture supernatant was frozen at −80 °C until use for analysis. ELISA was performed with sandwich ELISA kits (R&D Systems) and quantified on a Spectramax Absorbance reader (Molecular Biosystems). Data were analyzed with GraphPad.

Structure (SMILES) | Minimal cytotoxic concentration in NHEK (LD50) [1] | IL-6 protein secretion, cotreatment with U1 dsRNA, vs U1 dsRNA + LL-34 parent [2]
CC[C@H](C)[C@H](NC(=O)[C@H](CCCCN)NC(=O)[C@H](CCC(=O)O)NC(=O)[C@H](CCCCN)NC(=O)[C@H](CO)NC(=O)[C@H](CCCCN)NC(=O)[C@H](CCCNC(=N)N)NC(=O)[C@H](C)NC(=O)[C@H](Cc1ccccc1)NC(=O)[C@H](CC(=O)O)NC(=O)CNC(=O)[C@H](CC(C)C)NC(=O)[C@@H](N)CC(C)C)C(=O)NCC(=O)N[C@@H](CCCCN)C(=O)N[C@@H](CCC(=O)O)C(=O)N[C@@H](Cc1ccccc1)C(=O)N[C@@H](CCCCN)C(=O)N[C@@H](CCCNC(=N)N)C(=O)N[C@H](C(=O)N[C@H](C(=O)N[C@@H](CCC(N)=O)C(=O)N[C@@H](CCCNC(=N)N)C(=O)N[C@H](C(=O)N[C@@H](CCCCN)C(=O)N[C@@H](CC(=O)O)C(=O)N[C@@H](Cc1ccccc1)C(=O)N[C@@H](CC(C)C)C(=O)N[C@@H](CCCNC(=N)N)C(=O)N[C@@H](CC(N)=O)C(=O)N[C@@H](CC(C)C)C(=O)N[C@H](C(=O)N1CCC[C@H]1C(=O)N[C@@H](CCCNC(=N)N)C(=O)O)C(C)C)[C@@H](C)CC)C(C)C)[C@@H](C)CC [LL-34—F6A] (H-LLGDFARKSKEKIGKEFKRIVQRIKDFLRNLVPR-OH) | 5 µM | reduced secretion of IL-6 protein
CC[C@H](C)[C@H](NC(=O)[C@H](CCCCN)NC(=O)[C@H](CCC(=O)O)NC(=O)[C@H](CCCCN)NC(=O)[C@H](CO)NC(=O)[C@H](CCCCN)NC(=O)[C@H](CCCNC(=N)N)NC(=O)[C@H](Cc1ccccc1)NC(=O)[C@H](Cc1ccccc1)NC(=O)[C@H](CC(=O)O)NC(=O)CNC(=O)[C@H](CC(C)C)NC(=O)[C@@H](N)CC(C)C)C(=O)NCC(=O)N[C@@H](CCCCN)C(=O)N[C@@H](CCC(=O)O)C(=O)N[C@@H](C)C(=O)N[C@@H](CCCCN)C(=O)N[C@@H](CCCNC(=N)N)C(=O)N[C@H](C(=O)N[C@H](C(=O)N[C@@H](CCC(N)=O)C(=O)N[C@@H](CCCNC(=N)N)C(=O)N[C@H](C(=O)N[C@@H](CCCCN)C(=O)N[C@@H](CC(=O)O)C(=O)N[C@@H](Cc1ccccc1)C(=O)N[C@@H](CC(C)C)C(=O)N[C@@H](CCCNC(=N)N)C(=O)N[C@@H](CC(N)=O)C(=O)N[C@@H](CC(C)C)C(=O)N[C@H](C(=O)N1CCC[C@H]1C(=O)N[C@@H](CCCNC(=N)N)C(=O)O)C(C)C)[C@@H](C)CC)C(C)C)[C@@H](C)CC [LL-34—F17A] (H-LLGDFFRKSKEKIGKEAKRIVQRIKDFLRNLVPR-OH) | 5 µM | reduced secretion of IL-6 protein
CC[C@H](C)[C@H](NC(=O)[C@H](CCCCN)NC(=O)[C@H](CCC(=O)O)NC(=O)[C@H](CCCCN)NC(=O)[C@H](CO)NC(=O)[C@H](CCCCN)NC(=O)[C@H](CCCNC(=N)N)NC(=O)[C@H](Cc1ccccc1)NC(=O)[C@H](Cc1ccccc1)NC(=O)[C@H](CC(=O)O)NC(=O)CNC(=O)[C@H](CC(C)C)NC(=O)[C@@H](N)CC(C)C)C(=O)NCC(=O)N[C@@H](CCCCN)C(=O)N[C@@H](CCC(=O)O)C(=O)N[C@@H](Cc1ccccc1)C(=O)N[C@@H](CCCCN)C(=O)N[C@@H](CCCNC(=N)N)C(=O)N[C@@H](C)C(=O)N[C@H](C(=O)N[C@@H](CCC(N)=O)C(=O)N[C@@H](CCCNC(=N)N)C(=O)N[C@H](C(=O)N[C@@H](CCCCN)C(=O)N[C@@H](CC(=O)O)C(=O)N[C@@H](Cc1ccccc1)C(=O)N[C@@H](CC(C)C)C(=O)N[C@@H](CCCNC(=N)N)C(=O)N[C@@H](CC(N)=O)C(=O)N[C@@H](CC(C)C)C(=O)N[C@H](C(=O)N1CCC[C@H]1C(=O)N[C@@H](CCCNC(=N)N)C(=O)O)C(C)C)[C@@H](C)CC)C(C)C [LL-34—I20A] (H-LLGDFFRKSKEKIGKEFKRAVQRIKDFLRNLVPR-OH) | 5 µM | reduced secretion of IL-6 protein
CC[C@H](C)[C@H](NC(=O)[C@H](C)NC(=O)[C@H](CCC(N)=O)NC(=O)[C@@H](NC(=O)[C@@H](NC(=O)[C@H](CCCNC(=N)N)NC(=O)[C@H](CCCCN)NC(=O)[C@H](Cc1ccccc1)NC(=O)[C@H](CCC(=O)O)NC(=O)[C@H](CCCCN)NC(=O)CNC(=O)[C@@H](NC(=O)[C@H](CCCCN)NC(=O)[C@H](CCC(=O)O)NC(=O)[C@H](CCCCN)NC(=O)[C@H](CO)NC(=O)[C@H](CCCCN)NC(=O)[C@H](CCCNC(=N)N)NC(=O)[C@H](Cc1ccccc1)NC(=O)[C@H](Cc1ccccc1)NC(=O)[C@H](CC(=O)O)NC(=O)CNC(=O)[C@H](CC(C)C)NC(=O)[C@@H](N)CC(C)C)[C@@H](C)CC)[C@@H](C)CC)C(C)C)C(=O)N[C@@H](CCCCN)C(=O)N[C@@H](CC(=O)O)C(=O)N[C@@H](Cc1ccccc1)C(=O)N[C@@H](CC(C)C)C(=O)N[C@@H](CCCNC(=N)N)C(=O)N[C@@H](CC(N)=O)C(=O)N[C@@H](CC(C)C)C(=O)N[C@H](C(=O)N1CCC[C@H]1C(=O)N[C@@H](CCCNC(=N)N)C(=O)O)C(C)C [LL-34—R23A] (H-LLGDFFRKSKEKIGKEFKRIVQAIKDFLRNLVPR-OH) | 10 µM | reduced secretion of IL-6 protein
CC[C@H](C)[C@H](NC(=O)[C@H](CCCCN)NC(=O)[C@H](CCC(=O)O)NC(=O)[C@H](CCCCN)NC(=O)[C@H](C)NC(=O)[C@H](CCCCN)NC(=O)[C@H](CCCNC(=N)N)NC(=O)[C@H](Cc1ccccc1)NC(=O)[C@H](Cc1ccccc1)NC(=O)[C@H](CC(=O)O)NC(=O)CNC(=O)[C@H](CC(C)C)NC(=O)[C@@H](N)CC(C)C)C(=O)NCC(=O)N[C@@H](CCCCN)C(=O)N[C@@H](CCC(=O)O)C(=O)N[C@@H](Cc1ccccc1)C(=O)N[C@@H](CCCCN)C(=O)N[C@@H](CCCNC(=N)N)C(=O)N[C@H](C(=O)N[C@H](C(=O)N[C@@H](CCC(N)=O)C(=O)N[C@@H](CCCNC(=N)N)C(=O)N[C@H](C(=O)N[C@@H](CCCCN)C(=O)N[C@@H](CC(=O)O)C(=O)N[C@@H](Cc1ccccc1)C(=O)N[C@@H](CC(C)C)C(=O)N[C@@H](CCCNC(=N)N)C(=O)N[C@@H](CC(N)=O)C(=O)N[C@@H](CC(C)C)C(=O)N[C@H](C(=O)N1CCC[C@H]1C(=O)N[C@@H](CCCNC(=N)N)C(=O)O)C(C)C)[C@@H](C)CC)C(C)C)[C@@H](C)CC [LL-34—S9A] (H-LLGDFFRKAKEKIGKEFKRIVQRIKDFLRNLVPR-OH; N-terminus and C-terminus assumed) | 5 µM | 
CC[C@H](C)[C@H](NC(=O)[C@H](CCCCN)NC(=O)[C@H](CCC(=O)O)NC(=O)[C@H](CCCCN)NC(=O)[C@H](CO)NC(=O)[C@H](CCCCN)NC(=O)[C@H](CCCNC(=N)N)NC(=O)[C@H](Cc1ccccc1)NC(=O)[C@H](Cc1ccccc1)NC(=O)[C@H](CC(=O)O)NC(=O)CNC(=O)[C@H](CC(C)C)NC(=O)[C@@H](N)CC(C)C)C(=O)NCC(=O)N[C@@H](CCCCN)C(=O)N[C@@H](CCC(=O)O)C(=O)N[C@@H](Cc1ccccc1)C(=O)N[C@@H](CCCCN)C(=O)N[C@@H](CCCNC(=N)N)C(=O)N[C@H](C(=O)N[C@@H](C)C(=O)N[C@@H](CCC(N)=O)C(=O)N[C@@H](CCCNC(=N)N)C(=O)N[C@H](C(=O)N[C@@H](CCCCN)C(=O)N[C@@H](CC(=O)O)C(=O)N[C@@H](Cc1ccccc1)C(=O)N[C@@H](CC(C)C)C(=O)N[C@@H](CCCNC(=N)N)C(=O)N[C@@H](CC(N)=O)C(=O)N[C@@H](CC(C)C)C(=O)N[C@H](C(=O)N1CCC[C@H]1C(=O)N[C@@H](CCCNC(=N)N)C(=O)O)C(C)C)[C@@H](C)CC)[C@@H](C)CC [LL-34—V21A] (H-LLGDFFRKSKEKIGKEFKRIAQRIKDFLRNLVPR-OH; N-terminus and C-terminus assumed) | 5 µM | 

Reference: article PMC8214221, “Sequence determinants in the cathelicidin LL-37 that promote inflammation via presentation of RNA to scavenger receptors” (The Journal of Biological Chemistry, 2021)
